Reference: PubChem BioAssay (NCI)
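All cell lines were grown in 96-well plates and treated with compound for 48 hours. GI50 = concentration required for 50% inhibition of growth. Definition used: TGI = concentration required for complete inhibition of growth.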

Assays:
Experiment in all cases: NCI-60 cell line screen, 48 h
LOX IMVI melanoma = system: LOX IMVI melanoma
NCI-H522 lung = system: NCI-H522 lung
EKVX NSCLC = system: EKVX NSCLC
SK-MEL-2 melanoma = system: SK-MEL-2 melanoma
SR leukemia = system: SR leukemia
NCI-H460 lung = system: NCI-H460 lung
MDA-MB-231 breast = system: MDA-MB-231 breast
SF-268 CNS = system: SF-268 CNS
DU-145 prostate = system: DU-145 prostate
A498 renal = system: A498 renal

SMILES	GI50 (LOX IMVI melanoma) [nM]	TGI (LOX IMVI melanoma) [µM]	GI50 (NCI-H522 lung) [nM]	TGI (NCI-H522 lung) [µM]	GI50 (EKVX NSCLC) [nM]	TGI (EKVX NSCLC) [µM]	GI50 (SK-MEL-2 melanoma) [nM]	TGI (SK-MEL-2 melanoma) [µM]	GI50 (SR leukemia) [nM]	TGI (SR leukemia) [µM]	GI50 (NCI-H460 lung) [nM]	TGI (NCI-H460 lung) [µM]	GI50 (MDA-MB-231 breast) [nM]	TGI (MDA-MB-231 breast) [µM]	GI50 (SF-268 CNS) [µM]	TGI (SF-268 CNS) [µM]	GI50 (DU-145 prostate) [µM]	TGI (DU-145 prostate) [µM]	TGI (A498 renal) [µM]	GI50 (A498 renal) [nM]
COC(=O)/C=C1\S/C(=N\NC(=O)c2cc3ccc2/C=C\c2ccc(cc2)/C=C\3)N(c2ccccc2)C1=O	1690	3.37	4890	> 100	1910	4.23	2650	7.76	2460	> 100	2080	4.29	2630	7.46	3.09	11.2	5.11	35.3	–	–
Cc1ccsc1C(=S)Nc1ccc(Cl)c(/C=N/OC(C)(C)C)c1	–	48.8	–	> 100	–	> 100	–	> 100	–	61.7	–	> 100	–	69.9	–	> 100	–	> 100	41.1	–
Cc1cc(-c2nc(C(=O)Nc3cc4oc(N5CCOCC5)nc4nc3N3CC[C@@H](O)C3)co2)ccn1	39900	> 100	20000	> 100	> 100000	> 100	23000	99.8	30900	> 100	44000	> 100	45600	> 100	61.7	> 100	46.9	> 100	39.2	1340
COc1cccc(-c2cc(-c3cccc(NS(C)(=O)=O)c3)nc(N)c2C#N)c1O	136	> 100	16.3	0.075	561	> 100	132	> 100	56.2	> 100	316	> 39.5	815	> 100	0.587	> 100	0.182	> 100	35	99.9
CCC(=O)[C@H](C)[C@@H](OC(=O)[C@H](C)CC)[C@H](C)[C@H]1OC(CC)=C(C)C(=O)[C@@H]1C	16900	30.5	–	–	23900	73.9	24600	50.2	13500	42.3	15700	36.2	13300	30.9	25.3	> 100	23.4	68.4	73	25200
COc1cc2c(cc1OCCCCN1CCN(CC(=O)Nc3ccc(Cl)cc3C(=O)c3ccccc3Cl)CC1)N=CC1CCCN1C2=O (stereo unspecified)	203	0.442	107	0.316	375	1.07	288	0.869	138	0.456	228	0.517	251	0.759	0.268	0.711	0.277	0.791	0.364	194
C=CCOc1ccc2c(C)cc(=O)oc2c1C	–	> 100	–	81.4	–	> 100	–	> 100	–	> 100	–	> 100	–	> 100	–	> 100	–	> 100	> 100	–
